These results are taken from PMC6644330 (ACS Omega, 2017).

Marks after values point to notes of the source that are not given here.

For series [1] the following is noted: cited from earlier work.
The format of series [2] is physicochemical. Conditions: for log KOW (eq 5b): corrected for phase volume ratio vO/vW; for migration from water to octanol (log KOW could not be measured): zwitterions.
For series [3] the following is noted: 1H NMR method, preliminary account in the Magritek laboratory manual; cited from earlier work.

For `C1COCCO1` [1,4-dioxane], the “literature log KOW (ref ([9]))” value in series [1] is on record as “–0.27”. In addition, the “log KOW (eq 5b)” value in series [2] (20–21 °C) is recorded as “–0.31”.
As for `CCC(C)O` (stereo not shown) [2-butanol], the “literature log KOW (ref ([9]))” value in series [1] is 0.61. Moreover, the “log KOW (eq 5b)” value in series [2] (20–21 °C) was 0.65.
Consider `CC(C)CO` [2-methylpropanol-1], for which the “literature log KOW (ref ([9]))” value in series [1] was 0.76. The “log KOW (eq 5b)” value in series [2] (20–21 °C) worked out at 0.89.
Consider `CC(C)=O` [acetone], for which the “literature log KOW (ref ([9]))” value in series [1] is “–0.24”. The “log KOW (ref ([14]))” value in series [3] is on record as “–0.23”. Also, the “log KOW (eq 5b)” value in series [2] (20–21 °C) is “–0.24”. Besides, in series [2] (single measurement, eq 4), the KOW worked out at 0.589 and the “log KOW” value is −0.23.
Turning to `CC#N` [acetonitrile], the “literature log KOW (ref ([9]))” value in series [1] is recorded as “–0.34”. Moreover, the “log KOW (ref ([14]))” value in series [3] is given as “–0.51”. Also, in series [2] (20–21 °C), the “log KOW (eq 5b)” value is given as “–0.28”.
Take `C[C@H](N)C(=O)O` [alanine]: the “migration from water to octanol (log KOW could not be measured)” value in series [2] is given as “did not migrate to any detectable extent”.
For `CCC(C)=O` [butanone], in series [1], the “literature log KOW (ref ([9]))” value was 0.29. Moreover, the “log KOW (eq 5b)” value in series [2] (20–21 °C) was found to be 0.33.
Turning to `C[S+](C)[O-]` [dimethyl sulfoxide], in series [1], the “literature log KOW” value was −2.03 (ref ([1])) and the “literature log KOW (ref ([9]))” value was “–1.35”. Moreover, in series [2] (20–21 °C), the “log KOW (eq 5b)” value was “–1.87”.
`CN(C)C=O` [dimethylformamide]: in series [2] (20–21 °C), the “log KOW (eq 5b)” value is on record as “–1.03”.
With `CCOC(C)=O` [ethyl acetate], the “literature log KOW (ref ([9]))” value in series [1] was 0.73. Moreover, the “log KOW (eq 5b)” value in series [2] (20–21 °C) is 0.88.
Turning to `NCC(=O)O` [glycine], the “migration from water to octanol (log KOW could not be measured)” value in series [2] is “did not migrate to any detectable extent”.
For the molecule `CO` [methanol], in series [1], the “literature log KOW (ref ([9]))” value was “–0.77”. In addition, in series [2] (20–21 °C, corrected for phase volume ratio and for OH), the “log KOW (eq 5b), corrected for OH” value is on record as −0.71 ^c. Besides, the “log KOW (eq 5b)” value in series [2] (20–21 °C) is “–0.75”. In series [2] (20–21 °C, n = 5, equal phase volumes assumed, corrected for OH), the “log KOW ± SD (eq 4, this work), corrected for OH” value was “–0.72 ^c ± 0.016 (n = 5)”. Moreover, the “correction of log KOW for alcohol OH protons” value in series [2] (increase of log KOW) was 0.04.
`COC(C)=O` [methyl acetate]: the “literature log KOW (ref ([9]))” value in series [1] is 0.18. Moreover, in series [2] (20–21 °C), the “log KOW (eq 5b)” value turned out to be 0.19.
For the molecule `C1CCOC1` [tetrahydrofuran], the “literature log KOW (ref ([9]))” value in series [1] is reported as 0.46. For the same molecule, in series [3], the “log KOW (ref ([14]))” value is 0.43. Also, in series [2] (20–21 °C), the “log KOW (eq 5b)” value was 0.44.
